Columns and labels:
[1] = Mixed-type inhibition of Trypanosoma cruzi epimastigotes hexokinase using D-glucose as substrate in presence of ATP by Lineweaver-Burk Plot analysis
[2] = Inhibition of Leishmania major trypanothione reductase
[3] = Inhibition of Trypanosoma cruzi hexokinase
[4] = Inhibition of Leishmania amazonensis squalene synthase
[5] = Inhibition of Trypanosoma cruzi glucose-6-phosphate dehydrogenase
Leishmania [6] = experiment: Antileishmanial activity against Leishmania in mucocutaneous leishmaniasis patient assessed as cure incidents at 4 mg/kg relative to control; assay type: functional
[7] = Inhibition of Trypanosoma cruzi SUMO-tagged glucose-6-phosphate dehydrogenase expressed in Escherichia coli BL21(DE3) using glucose-6-phosphate as substrate by diaphorase enzyme coupled fluorescence assay
[8] = Inhibition of Trypanosoma cruzi N-terminal His-tagged full-length glucose-6-phosphate dehydrogenase expressed in Escherichia coli BL21(DE3) using glucose-6-phosphate as substrate in presence of NADP+ by spectrophotometric method
[9] = Inhibition of Trypanosoma cruzi strain CL Brener N-terminal His6-tagged glucokinase expressed in Escherichia coli using D-glucose as substrate in presence of ATP by colorimetric assay
[10] = Inhibition of Trypanosoma cruzi strain CL Brener N-terminal His6-tagged glucokinase expressed in Escherichia coli using D-glucose as substrate in presence of ATP by Lineweaver-Burk Plot analysis
Trypanosoma cruzi = experiment: Antitrypanosomal activity against Trypanosoma cruzi Tulahuen amastigotes expressing beta-galactosidase gene infected in mouse NIH/3T3 cells after 4 days; assay type: functional, cell-based; details: NIH3T3, 96 h
Leishmania [11] = experiment: Antileishmanial activity against Leishmania in visceral leishmaniasis patient assessed as cure incidents at 10 to 15 mg/kg, iv administered as single dose as lipid formulations relative to control; assay type: functional

O=P(O)(O)C(Nc1cccc(Br)c1)P(=O)(O)O
Ki [1]: 1200 nM

O=C(CCl)N1c2ccccc2Oc2ccc(Cl)cc21
IC50 [2]: 7.6 µM

CCn1c2ccccc2c2cc(NC(P(=O)(O)O)P(=O)(O)O)ccc21
IC50 [3]: 6.4 µM | Ki [3]: 2800 nM

COCCCOc1ccc(C#C[C@@]2(O)CN3CCC2CC3)c(Cc2ccccc2)n1
IC50 [4]: 0.9 µM | Ki [4]: 1.2 nM

O=C(CCl)N1c2ccccc2COc2ccc(Cl)cc21
IC50 [2]: 7.2 µM

CCCCCCCn1cnc2sc(C(N)=O)c(C)c2c1=O
IC50 [5]: 4900 nM

O=C(CCl)N1c2ccccc2Sc2ccccc21
IC50 [2]: 9.3 µM

N=C(N)c1ccc(OCCCCCOc2ccc(C(=N)N)cc2)cc1 [PENTAMIDINE]
Activity (Leishmania [6]): 90 - 95%

O=P(O)(O)C(O)(Cc1ccncc1)P(=O)(O)O
Ki [1]: 4300 nM

C[C@]12CC[C@H](O)CC1=CC[C@@H]1[C@@H]2CC[C@]2(C)C(=O)[C@H](Br)C[C@@H]12
IC50 [7]: 216 nM

C[C@]12CC[C@H](O)C[C@@H]1CC[C@@H]1[C@@H]2CC[C@]2(C)C(=O)CC[C@@H]12 [EPIANDROSTERONE]
IC50 [8]: 3000 nM | Ki [8]: 3.2 µM

O=C(N[C@@H]1[C@@H](O)[C@H](O)[C@@H](CO)O[C@@H]1O)OCc1ccccc1
IC50 [9]: 48.7 µM | Ki [10]: 0.71 µM | IC50 (Trypanosoma cruzi): 16.1 µM

Cc1ccc(Nc2ncc3c(n2)CCCC3=O)cc1
IC50 [5]: 480 nM

O=C(N[C@@H]1[C@@H](O)[C@H](O)[C@@H](CO)O[C@@H]1O)c1ccccc1
IC50 [9]: 16.1 µM | Ki [10]: 32 µM | IC50 (Trypanosoma cruzi): 48.7 µM

CO[C@H]1CN(c2ccc(C#C[C@@]3(O)CN4CCC3CC4)c(Cc3ccccc3)n2)C[C@H]1O
IC50 [4]: 6.7 µM | Ki [4]: 5.2 nM

C[C@@H]1[C@H](O)[C@@H](C)/C=C/C=C/C=C/C=C/C=C/C=C/C=C/[C@H](O[C@@H]2O[C@H](C)[C@@H](O)[C@H](N)[C@@H]2O)C[C@@H]2O[C@](O)(C[C@@H](O)C[C@@H](O)[C@H](O)CC[C@@H](O)C[C@@H](O)CC(=O)O[C@H]1C)C[C@H](O)[C@H]2C(=O)O [AMPHOTERICIN B]
Activity (Leishmania [11]): 93.3%

C[C@]12CC[C@H](O)C[C@@H]1CC[C@@H]1[C@@H]2CC[C@]2(C)C(=O)[C@H](Br)C[C@@H]12 [16.ALPHA.-BROMOEPIANDROSTERONE]
IC50 [7]: 86 nM

From ChEMBL document CHEMBL4007407, “Carbonic anhydrases from Trypanosoma and Leishmania as anti-protozoan drug targets” (Bioorg Med Chem, 2017)
